Tested on: helper T cells in human PBMCs
Test: ex vivo T cell proliferation assay of peptides with CD8+ / CD25hi depleted PBMC
Assay type: cell-based
Conditions: for Number of responding donors: from 50 donors with a range of MHC class haplotypes; for Mean SI: mean stimulation index for responding donors, 50 donors tested; for helper T cell epitope status by T cell assays (database entry): proliferation assay, threshold SI≧2, CD25hi depletion 10 and 20 minutes; for T cell epitope strength (T cell proliferative responses): PBMCs of donor 475, peptide 5 μM

FKGEQGPKG
Number of responding donors: 4 | Mean SI: 3.5 ± 0.7

FLLTRILTI
Number of responding donors: 6 | Mean SI: 3.9 ± 1.6

FQHESGPLG [test peptide]
Number of responding donors: 3 | Mean SI: 2.8 ± 0.7

FQHTSILLI [test peptide]
Number of responding donors: 5 | Mean SI: 3.8 ± 0.7

GDKGVSWYQQGSGQS [2-F→G]
helper T cell epitope status by T cell assays (database entry): negative

GFGBHIGPLGEP
helper T cell epitope status by T cell assays (database entry): non-T cell epitope

GQHASGGLA [control peptide with altered P1 residue]
Number of responding donors: 0

GQHESASLR [control peptide with altered P1 residue]
Number of responding donors: 0

GQHESGPLG [control peptide with altered P1 residue]
Number of responding donors: 0

GQHTSILLI [control peptide with altered P1 residue]
Number of responding donors: 0

GQHWSYPLT [control peptide with altered P1 residue]
Number of responding donors: 0

ILWEWASYR
Number of responding donors: 3 | Mean SI: 2.6 ± 0.6

IQHESASLR [test peptide]
Number of responding donors: 3 | Mean SI: 2.6 ± 0.1

LQHASGGLA [test peptide]
Number of responding donors: 2 | Mean SI: 2.2 ± 0.2

LQHWSYPLT
Number of responding donors: 5 | Mean SI: 6.3 ± 1.3

LSCAAGGRA
Number of responding donors: 3 | Mean SI: 2.3 ± 0.5

PKYRNGQPLNSLKIAT [25 M→G]
helper T cell epitope status by T cell assays (database entry): negative

PKYRNMQPLNSLKIAT [compound 25]
T cell epitope strength (T cell proliferative responses): strong | helper T cell epitope status by T cell assays (database entry): helper T cell epitopes

QSISNWGNWYQQKPG [9-L→G]
helper T cell epitope status by T cell assays (database entry): negative

TVFYNIPPMPL [compound 26]
T cell epitope strength (T cell proliferative responses): strong | helper T cell epitope status by T cell assays (database entry): helper T cell epitopes

TVGYNIPPMPL [26 F→G]
helper T cell epitope status by T cell assays (database entry): negative
